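Where inhibition never reached the appropriate level, the endpoint shown equals the highest concentration tested. Otherwise, values were interpolated linearly from a five-concentration, 48-hour dose response in 96-well plates. GI50: concentration for 50% inhibition of growth. TGI denotes the concentration required for complete inhibition of growth.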 Where a SMILES comes first, the peptide text is derived from it. [ ]: non-standard residue; d: D form. The star is where a group is joined. X13 = OC[C@H](CC1CCCCC1)N*; Aib = CC(C)(N)C(=O)O
Columns and labels:
Assay in all cases: growth of human tumour cells (NCI), 48 h
UACC-62 melanoma = system: UACC-62 melanoma
HS 578T breast = system: HS 578T breast
IGROV1 ovarian = system: IGROV1 ovarian
U251 CNS = system: U251 CNS
SK-MEL-5 melanoma = system: SK-MEL-5 melanoma
DU-145 prostate = system: DU-145 prostate
BT-549 breast = system: BT-549 breast
CCRF-CEM leukemia = system: CCRF-CEM leukemia
COLO 205 colon = system: COLO 205 colon
OVCAR-4 ovarian = system: OVCAR-4 ovarian
NCI-H460 lung = system: NCI-H460 lung
MCF7 breast = system: MCF7 breast
HCC-2998 colon = system: HCC-2998 colon
SK-MEL-2 melanoma = system: SK-MEL-2 melanoma
A549 NSCLC = system: A549 NSCLC
RPMI-8226 leukemia = system: RPMI-8226 leukemia
NCI-H23 lung = system: NCI-H23 lung
MDA-MB-435 = system: MDA-MB-435
SK-MEL-28 melanoma = system: SK-MEL-28 melanoma
HL-60(TB) leukemia = system: HL-60(TB) leukemia
PC-3 prostate = system: PC-3 prostate
HOP-62 NSCLC = system: HOP-62 NSCLC
HCT-15 colon = system: HCT-15 colon
M14 melanoma = system: M14 melanoma
786-0 renal = system: 786-0 renal
HOP-92 NSCLC = system: HOP-92 NSCLC
NCI/ADR-RES ovarian = system: NCI/ADR-RES ovarian
LOX IMVI melanoma = system: LOX IMVI melanoma
UO-31 renal = system: UO-31 renal
SF-295 CNS = system: SF-295 CNS
NCI-H226 lung = system: NCI-H226 lung
MDA-MB-231 breast = system: MDA-MB-231 breast
KM12 colon = system: KM12 colon
T-47D breast = system: T-47D breast
OVCAR-8 ovarian = system: OVCAR-8 ovarian
UACC-257 melanoma = system: UACC-257 melanoma
NCI-H522 lung = system: NCI-H522 lung
SF-268 CNS = system: SF-268 CNS
A498 renal = system: A498 renal
HCT-116 colon = system: HCT-116 colon
ACHN renal = system: ACHN renal
SF-539 CNS = system: SF-539 CNS
SN12C renal = system: SN12C renal
MALME-3M melanoma = system: MALME-3M melanoma
OVCAR-5 ovarian = system: OVCAR-5 ovarian
HT29 colon = system: HT29 colon
SNB-19 CNS = system: SNB-19 CNS
EKVX NSCLC = system: EKVX NSCLC
OVCAR-3 ovarian = system: OVCAR-3 ovarian
SK-OV-3 ovarian = system: SK-OV-3 ovarian
MOLT-4 leukemia = system: MOLT-4 leukemia
SNB-75 CNS = system: SNB-75 CNS
SW-620 colon = system: SW-620 colon
TK-10 renal = system: TK-10 renal
SR leukemia = system: SR leukemia
RXF 393 renal = system: RXF 393 renal
K-562 leukemia = system: K-562 leukemia

## CC(=O)NC(C)(C)C(=O)N[C@@H](C)C(=O)NC(C)(C)C(=O)N[C@@H](C)C(=O)NC(C)(C)C(=O)N[C@@H](C)C(=O)N[C@@H](CCC(N)=O)C(=O)NC(C)(C)C(=O)N[C@H](C(=O)NC(C)(C)C(=O)NCC(=O)N[C@@H](CC(C)C)C(=O)NC(C)(C)C(=O)N1CCC[C@H]1C(=O)N[C@H](C(=O)NC(C)(C)C(=O)NC(C)(C)C(=O)N[C@@H](CCC(N)=O)C(=O)N[C@@H](CCC(N)=O)C(=O)N[C@H](CO)CC1CCCCC1)C(C)C)C(C)C (Ac-[Aib]A[Aib]A[Aib]AQ[Aib]V[Aib]GL[Aib]PV[Aib][Aib]QQ-X13)
UACC-62 melanoma
  GI50: 0.609 µM
  TGI: > 5 µM
HS 578T breast
  GI50: 3.71 µM
  TGI: > 5 µM
IGROV1 ovarian
  GI50: 3.06 µM
  TGI: > 5 µM
U251 CNS
  GI50: 2.19 µM
  TGI: > 5 µM
SK-MEL-5 melanoma
  GI50: 1.1 µM
  TGI: > 3.14 µM
DU-145 prostate
  GI50: 1.33 µM
  TGI: > 5 µM
BT-549 breast
  GI50: 1.43 µM
  TGI: > 5 µM
CCRF-CEM leukemia
  GI50: > 4.8 µM
  TGI: > 5 µM
COLO 205 colon
  GI50: 0.178 µM
  TGI: 1.22 µM
OVCAR-4 ovarian
  GI50: 1.58 µM
  TGI: > 5 µM
NCI-H460 lung
  GI50: 1.51 µM
  TGI: > 5 µM
MCF7 breast
  GI50: 0.399 µM
  TGI: > 5 µM
HCC-2998 colon
  GI50: 2.91 µM
  TGI: > 5 µM
SK-MEL-2 melanoma
  GI50: 1.44 µM
  TGI: > 5 µM
A549 NSCLC
  GI50: > 5 µM
  TGI: > 5 µM
RPMI-8226 leukemia
  GI50: 1.16 µM
  TGI: 4 µM
NCI-H23 lung
  GI50: 1.38 µM
  TGI: > 5 µM
MDA-MB-435
  GI50: 0.834 µM
  TGI: > 5 µM
SK-MEL-28 melanoma
  GI50: 0.199 µM
  TGI: 1.37 µM
HL-60(TB) leukemia
  GI50: 1.3 µM
  TGI: > 5 µM
PC-3 prostate
  GI50: 1.98 µM
  TGI: > 5 µM
HOP-62 NSCLC
  GI50: > 5 µM
  TGI: > 5 µM
HCT-15 colon
  GI50: > 5 µM
  TGI: > 5 µM
M14 melanoma
  GI50: 0.221 µM
  TGI: > 5 µM
786-0 renal
  GI50: > 5 µM
  TGI: > 5 µM
HOP-92 NSCLC
  GI50: 1.01 µM
  TGI: 3.8 µM
NCI/ADR-RES ovarian
  GI50: > 5 µM
  TGI: > 5 µM
LOX IMVI melanoma
  GI50: 1.56 µM
  TGI: > 5 µM
UO-31 renal
  GI50: > 3.96 µM
  TGI: > 5 µM
SF-295 CNS
  GI50: 1.64 µM
  TGI: > 5 µM
NCI-H226 lung
  GI50: 2.06 µM
  TGI: > 5 µM
MDA-MB-231 breast
  GI50: 2.49 µM
  TGI: > 5 µM
KM12 colon
  GI50: > 4.1 µM
  TGI: > 5 µM
T-47D breast
  GI50: 1.26 µM
  TGI: > 5 µM
OVCAR-8 ovarian
  GI50: > 4.25 µM
  TGI: > 5 µM
UACC-257 melanoma
  GI50: 0.446 µM
  TGI: 2.67 µM
NCI-H522 lung
  GI50: 1.04 µM
  TGI: > 5 µM
SF-268 CNS
  GI50: 2.24 µM
  TGI: > 5 µM
A498 renal
  GI50: > 4.12 µM
  TGI: > 5 µM
HCT-116 colon
  GI50: 2.04 µM
  TGI: > 5 µM
ACHN renal
  GI50: > 5 µM
  TGI: > 5 µM
SF-539 CNS
  GI50: 2.28 µM
  TGI: > 5 µM
SN12C renal
  GI50: 1.82 µM
  TGI: > 5 µM
MALME-3M melanoma
  GI50: 0.0306 µM
  TGI: 0.239 µM
OVCAR-5 ovarian
  GI50: > 4.67 µM
  TGI: > 5 µM
HT29 colon
  GI50: 0.286 µM
  TGI: > 5 µM
SNB-19 CNS
  GI50: 1.79 µM
  TGI: > 5 µM
EKVX NSCLC
  GI50: 2.29 µM
  TGI: > 5 µM
OVCAR-3 ovarian
  GI50: 1.68 µM
  TGI: > 5 µM
SK-OV-3 ovarian
  GI50: > 5 µM
  TGI: > 5 µM
MOLT-4 leukemia
  GI50: > 5 µM
  TGI: > 5 µM
SNB-75 CNS
  GI50: 1.07 µM
  TGI: > 5 µM
SW-620 colon
  GI50: 1.65 µM
  TGI: > 5 µM
TK-10 renal
  GI50: 3.43 µM
  TGI: > 5 µM
SR leukemia
  GI50: 3.37 µM
  TGI: > 5 µM
RXF 393 renal
  GI50: 2.63 µM
  TGI: > 5 µM
K-562 leukemia
  GI50: 2.2 µM
  TGI: > 5 µM
